Measurements published in patent US20100137449A1, “SUBSTITUTED 1,3-CYCLOPENTADIONE MULTI-TARGET PROTEIN KINASE MODULATORS OF CANCER, ANGIOGENESIS AND THE INFLAMMATORY PATHWAYS ASSOCIATED THEREWITH” (METAPROTEOMICS, LLC, priority 2007, published 2010).

Experiments:
Test in all cases: KinaseProfiler Assay
TrkA(h) = TrkA(h) (Homo sapiens, UniProt P04629)
PKBα(h) = PKBα(h) (Homo sapiens, UniProt P31749)
Fes(h) = Fes(h) (Homo sapiens, UniProt P07332)
Rsk3(h) = Rsk3(h) (Homo sapiens, UniProt Q15349)
Flt1(h) = Flt1(h) (Homo sapiens, UniProt P17948)
CDK1/cyclinB(h) = CDK1/cyclinB(h) (Homo sapiens, UniProt P06493)
CHK2(R145W)(h) = CHK2(R145W)(h) (Homo sapiens, UniProt O96017, R145W)
DAPK2(h) = DAPK2(h) (Homo sapiens, UniProt Q9UIK4)
IKKβ(h) = molecular target: T1, IKKβ(h) (Homo sapiens, UniProt O14920)
T1 sequence (O14920 1-756): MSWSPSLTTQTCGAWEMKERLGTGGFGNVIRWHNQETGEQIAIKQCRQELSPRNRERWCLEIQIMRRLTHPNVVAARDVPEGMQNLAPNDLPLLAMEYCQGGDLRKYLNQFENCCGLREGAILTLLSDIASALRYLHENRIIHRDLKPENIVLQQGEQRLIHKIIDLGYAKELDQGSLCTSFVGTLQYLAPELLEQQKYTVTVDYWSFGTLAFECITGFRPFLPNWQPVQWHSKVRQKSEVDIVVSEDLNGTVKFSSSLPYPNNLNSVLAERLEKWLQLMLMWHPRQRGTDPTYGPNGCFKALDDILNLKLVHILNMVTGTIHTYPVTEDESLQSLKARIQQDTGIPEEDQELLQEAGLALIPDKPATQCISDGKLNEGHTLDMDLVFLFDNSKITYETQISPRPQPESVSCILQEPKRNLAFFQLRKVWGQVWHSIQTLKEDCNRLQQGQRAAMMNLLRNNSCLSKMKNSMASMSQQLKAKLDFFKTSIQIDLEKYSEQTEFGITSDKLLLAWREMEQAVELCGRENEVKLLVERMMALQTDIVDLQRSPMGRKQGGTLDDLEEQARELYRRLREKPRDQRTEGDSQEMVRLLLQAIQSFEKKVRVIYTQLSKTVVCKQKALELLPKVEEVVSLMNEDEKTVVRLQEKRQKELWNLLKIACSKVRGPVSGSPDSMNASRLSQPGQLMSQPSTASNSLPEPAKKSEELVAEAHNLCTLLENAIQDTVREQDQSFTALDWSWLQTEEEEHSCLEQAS

CDK6/cydinD3(h) = CDK6/cydinD3(h) (Homo sapiens, UniProt Q00534)
MRCKα(h) = MRCKα(h) (Homo sapiens, UniProt Q5VT25)
WNK3(h) = WNK3(h) (Homo sapiens, UniProt Q9BYP7)
Ret(V804M)(h) = Ret(V804M)(h) (Homo sapiens, UniProt P07949, V804M)
Sequence of Ret(V804M)(h) (P07949 29-1114 V804M): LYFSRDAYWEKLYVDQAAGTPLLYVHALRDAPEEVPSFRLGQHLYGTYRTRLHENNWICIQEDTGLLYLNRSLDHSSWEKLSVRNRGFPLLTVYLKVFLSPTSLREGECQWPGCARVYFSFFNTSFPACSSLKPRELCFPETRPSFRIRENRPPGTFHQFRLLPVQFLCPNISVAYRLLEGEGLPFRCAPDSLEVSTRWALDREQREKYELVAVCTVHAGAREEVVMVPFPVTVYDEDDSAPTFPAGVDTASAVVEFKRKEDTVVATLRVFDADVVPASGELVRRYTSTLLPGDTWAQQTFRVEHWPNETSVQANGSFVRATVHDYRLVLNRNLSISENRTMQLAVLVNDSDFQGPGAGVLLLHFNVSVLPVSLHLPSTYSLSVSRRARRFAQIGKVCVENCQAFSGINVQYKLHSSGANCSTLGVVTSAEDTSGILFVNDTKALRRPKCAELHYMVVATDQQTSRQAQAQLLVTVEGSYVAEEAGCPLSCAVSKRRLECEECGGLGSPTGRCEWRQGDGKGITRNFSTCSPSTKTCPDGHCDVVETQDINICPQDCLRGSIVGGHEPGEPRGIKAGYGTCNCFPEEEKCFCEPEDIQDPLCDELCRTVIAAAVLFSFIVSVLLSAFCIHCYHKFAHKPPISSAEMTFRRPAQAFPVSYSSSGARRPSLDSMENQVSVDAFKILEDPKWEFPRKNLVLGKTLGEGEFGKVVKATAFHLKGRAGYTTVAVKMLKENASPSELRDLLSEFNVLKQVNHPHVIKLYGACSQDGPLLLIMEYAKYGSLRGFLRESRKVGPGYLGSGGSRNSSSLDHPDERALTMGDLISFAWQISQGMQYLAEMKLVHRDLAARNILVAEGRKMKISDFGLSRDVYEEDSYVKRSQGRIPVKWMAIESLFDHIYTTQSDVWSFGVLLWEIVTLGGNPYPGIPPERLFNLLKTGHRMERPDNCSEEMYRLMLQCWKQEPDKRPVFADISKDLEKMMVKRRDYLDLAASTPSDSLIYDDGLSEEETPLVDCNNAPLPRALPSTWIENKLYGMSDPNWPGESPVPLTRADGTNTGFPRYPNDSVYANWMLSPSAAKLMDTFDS

Sequence of Fes(h) (P07332 whole entry): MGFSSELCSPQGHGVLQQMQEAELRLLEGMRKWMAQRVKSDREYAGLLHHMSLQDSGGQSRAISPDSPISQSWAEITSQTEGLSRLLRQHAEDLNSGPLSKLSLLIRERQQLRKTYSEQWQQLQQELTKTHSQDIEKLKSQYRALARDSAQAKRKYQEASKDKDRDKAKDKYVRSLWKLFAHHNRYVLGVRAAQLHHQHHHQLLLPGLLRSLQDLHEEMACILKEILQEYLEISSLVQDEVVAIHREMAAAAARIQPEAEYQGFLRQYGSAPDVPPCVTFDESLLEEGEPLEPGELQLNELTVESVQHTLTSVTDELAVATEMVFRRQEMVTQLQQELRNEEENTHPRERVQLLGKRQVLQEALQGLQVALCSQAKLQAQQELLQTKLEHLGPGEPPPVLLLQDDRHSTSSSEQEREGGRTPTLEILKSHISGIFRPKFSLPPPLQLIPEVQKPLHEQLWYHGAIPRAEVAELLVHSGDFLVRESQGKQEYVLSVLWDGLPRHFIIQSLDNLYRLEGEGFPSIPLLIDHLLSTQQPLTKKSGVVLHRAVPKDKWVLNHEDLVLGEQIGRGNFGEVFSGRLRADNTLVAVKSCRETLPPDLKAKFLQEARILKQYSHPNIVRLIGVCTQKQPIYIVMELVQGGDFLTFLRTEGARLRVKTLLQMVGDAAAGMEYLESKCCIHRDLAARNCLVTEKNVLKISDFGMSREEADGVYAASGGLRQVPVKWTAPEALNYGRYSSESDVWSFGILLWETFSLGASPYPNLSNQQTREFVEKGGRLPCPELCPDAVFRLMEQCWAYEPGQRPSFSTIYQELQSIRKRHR
Sequence of CDK1/cyclinB(h) (P06493 whole entry): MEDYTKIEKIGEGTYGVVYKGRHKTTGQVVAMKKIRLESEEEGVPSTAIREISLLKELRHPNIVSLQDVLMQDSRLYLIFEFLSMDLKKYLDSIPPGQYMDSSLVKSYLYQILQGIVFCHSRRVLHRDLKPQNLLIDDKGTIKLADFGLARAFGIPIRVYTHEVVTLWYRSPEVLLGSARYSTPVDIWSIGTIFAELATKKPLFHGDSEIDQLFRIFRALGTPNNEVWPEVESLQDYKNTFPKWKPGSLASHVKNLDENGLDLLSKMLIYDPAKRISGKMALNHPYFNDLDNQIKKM
Sequence of CDK1/cyclinB(h) (P14635 whole entry partner): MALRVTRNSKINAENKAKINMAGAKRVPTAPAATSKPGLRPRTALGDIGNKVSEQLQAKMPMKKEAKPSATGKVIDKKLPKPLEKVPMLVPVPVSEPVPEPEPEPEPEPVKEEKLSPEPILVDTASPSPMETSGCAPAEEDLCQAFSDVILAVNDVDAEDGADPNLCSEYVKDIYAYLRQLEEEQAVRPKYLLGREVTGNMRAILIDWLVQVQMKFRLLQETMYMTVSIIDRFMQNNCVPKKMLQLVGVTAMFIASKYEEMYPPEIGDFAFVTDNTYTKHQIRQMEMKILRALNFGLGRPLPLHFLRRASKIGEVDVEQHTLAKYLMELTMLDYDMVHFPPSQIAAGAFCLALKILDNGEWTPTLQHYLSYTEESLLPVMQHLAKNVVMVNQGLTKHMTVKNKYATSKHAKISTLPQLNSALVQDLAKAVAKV
Sequence of DAPK2(h) (Q9UIK4 whole entry): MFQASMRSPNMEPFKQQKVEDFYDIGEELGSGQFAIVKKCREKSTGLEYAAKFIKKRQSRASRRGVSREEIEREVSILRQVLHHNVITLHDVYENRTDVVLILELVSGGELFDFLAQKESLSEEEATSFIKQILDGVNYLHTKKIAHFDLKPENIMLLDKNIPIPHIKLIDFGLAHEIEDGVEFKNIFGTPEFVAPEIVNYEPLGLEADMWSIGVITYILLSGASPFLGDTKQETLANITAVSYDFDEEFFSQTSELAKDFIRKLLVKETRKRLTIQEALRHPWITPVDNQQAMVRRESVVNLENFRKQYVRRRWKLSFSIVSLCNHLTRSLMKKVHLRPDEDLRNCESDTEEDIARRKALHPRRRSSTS
Sequence of Rsk3(h) (Q15349 whole entry): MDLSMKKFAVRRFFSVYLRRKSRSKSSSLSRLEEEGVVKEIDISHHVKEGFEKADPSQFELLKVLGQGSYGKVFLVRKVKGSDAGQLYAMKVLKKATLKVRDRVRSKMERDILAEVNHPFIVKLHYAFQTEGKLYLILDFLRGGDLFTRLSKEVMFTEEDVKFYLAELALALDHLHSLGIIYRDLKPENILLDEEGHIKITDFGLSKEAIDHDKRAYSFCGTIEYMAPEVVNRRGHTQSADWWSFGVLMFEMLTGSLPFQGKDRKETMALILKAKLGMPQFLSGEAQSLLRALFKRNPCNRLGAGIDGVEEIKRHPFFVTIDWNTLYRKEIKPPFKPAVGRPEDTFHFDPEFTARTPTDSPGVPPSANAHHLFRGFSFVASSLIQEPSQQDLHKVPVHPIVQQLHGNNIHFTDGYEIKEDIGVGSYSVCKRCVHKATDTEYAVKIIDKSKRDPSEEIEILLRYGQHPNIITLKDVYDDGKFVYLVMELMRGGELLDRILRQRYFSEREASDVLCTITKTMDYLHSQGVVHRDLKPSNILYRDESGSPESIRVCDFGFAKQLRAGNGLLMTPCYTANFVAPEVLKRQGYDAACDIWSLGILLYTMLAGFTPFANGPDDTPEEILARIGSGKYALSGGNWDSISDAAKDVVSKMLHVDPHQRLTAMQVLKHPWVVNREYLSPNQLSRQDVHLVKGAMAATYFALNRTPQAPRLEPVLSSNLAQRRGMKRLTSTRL
Sequence of Flt1(h) (P17948 27-1338): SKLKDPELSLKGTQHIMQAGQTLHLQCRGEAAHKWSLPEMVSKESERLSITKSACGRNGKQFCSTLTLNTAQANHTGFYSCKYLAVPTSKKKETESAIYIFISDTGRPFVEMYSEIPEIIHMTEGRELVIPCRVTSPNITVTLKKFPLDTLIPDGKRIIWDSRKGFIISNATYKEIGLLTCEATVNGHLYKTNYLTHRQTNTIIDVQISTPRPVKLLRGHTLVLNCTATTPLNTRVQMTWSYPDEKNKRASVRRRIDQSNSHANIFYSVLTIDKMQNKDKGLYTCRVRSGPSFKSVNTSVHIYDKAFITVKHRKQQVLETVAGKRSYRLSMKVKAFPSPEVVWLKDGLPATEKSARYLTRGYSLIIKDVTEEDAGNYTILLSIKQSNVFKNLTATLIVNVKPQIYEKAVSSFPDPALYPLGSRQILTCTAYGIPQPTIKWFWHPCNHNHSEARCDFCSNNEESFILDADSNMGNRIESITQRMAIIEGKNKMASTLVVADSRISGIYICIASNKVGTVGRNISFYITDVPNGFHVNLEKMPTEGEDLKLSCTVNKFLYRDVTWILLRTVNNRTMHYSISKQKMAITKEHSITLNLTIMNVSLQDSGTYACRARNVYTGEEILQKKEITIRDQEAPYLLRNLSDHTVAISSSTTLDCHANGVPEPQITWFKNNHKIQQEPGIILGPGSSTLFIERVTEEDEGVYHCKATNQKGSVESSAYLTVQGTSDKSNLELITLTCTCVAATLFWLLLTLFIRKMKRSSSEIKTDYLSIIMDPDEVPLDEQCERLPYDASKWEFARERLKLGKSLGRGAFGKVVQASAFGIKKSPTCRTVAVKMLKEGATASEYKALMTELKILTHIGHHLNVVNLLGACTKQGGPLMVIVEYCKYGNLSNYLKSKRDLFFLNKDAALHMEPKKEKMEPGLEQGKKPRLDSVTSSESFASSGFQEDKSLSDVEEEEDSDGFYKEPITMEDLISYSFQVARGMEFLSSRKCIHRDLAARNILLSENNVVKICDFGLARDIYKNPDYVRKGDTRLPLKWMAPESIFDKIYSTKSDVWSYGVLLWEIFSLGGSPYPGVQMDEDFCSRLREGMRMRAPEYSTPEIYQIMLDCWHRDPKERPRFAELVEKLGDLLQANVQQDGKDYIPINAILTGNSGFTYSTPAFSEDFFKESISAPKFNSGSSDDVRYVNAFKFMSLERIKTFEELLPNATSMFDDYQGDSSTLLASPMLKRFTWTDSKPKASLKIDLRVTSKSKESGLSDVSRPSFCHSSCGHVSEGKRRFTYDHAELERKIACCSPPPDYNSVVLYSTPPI

For `CC(C)CCC(=O)[C@]1(O)C(O)=C(C(=O)C(C)C)C(=O)[C@H]1CCC(C)C` [TH2, tetrahydroiso-cohumulone], the kinase inhibition (TrkA(h); 1 μg/ml) was 110% of control, the kinase inhibition (TrkA(h); 5 μg/ml) was 111% of control and the kinase inhibition (TrkA(h); 25 μg/ml) was 99% of control. For the same compound, the kinase inhibition (TrkA(h); 50 μg/ml) was 31% of control, the kinase inhibition (TrkA(h); 100 μg/ml) was 25% of control and the kinase inhibition (PKBα(h); 1 μg/ml) was 123% of control. For the same compound, the kinase inhibition (PKBα(h); 5 μg/ml) was 130% of control, the kinase inhibition (PKBα(h); 25 μg/ml) was 126% of control and the kinase inhibition (PKBα(h); 50 μg/ml) was 118% of control. For the same compound, the kinase inhibition (PKBα(h); 100 μg/ml) was 79% of control, the kinase inhibition (Fes(h); 1 μg/ml) was 140% of control and the kinase inhibition (Fes(h); 5 μg/ml) was 120% of control. The kinase inhibition (Fes(h); 25 μg/ml) was 105% of control, the kinase inhibition (Fes(h); 50 μg/ml) was 99% of control and the kinase inhibition (Fes(h); 100 μg/ml) was 86% of control. The kinase inhibition (Rsk3(h); 1 μg/ml) was 112% of control, the kinase inhibition (Rsk3(h); 5 μg/ml) was 106% of control and the kinase inhibition (Rsk3(h); 25 μg/ml) was 97% of control. The kinase inhibition (Rsk3(h); 50 μg/ml) was 88% of control, the kinase inhibition (Rsk3(h); 100 μg/ml) was 85% of control and the kinase inhibition (Flt1(h); 1 μg/ml) was 102% of control. For the same compound, the kinase inhibition (Flt1(h); 5 μg/ml) was 97% of control, the kinase inhibition (Flt1(h); 25 μg/ml) was 103% of control and the kinase inhibition (Flt1(h); 50 μg/ml) was 102% of control. For the same compound, the kinase inhibition (Flt1(h); 100 μg/ml) was 98% of control, the kinase inhibition (CDK1/cyclinB(h); 1 μg/ml) was 111% of control and the kinase inhibition (CDK1/cyclinB(h); 5 μg/ml) was 111% of control. The kinase inhibition (CDK1/cyclinB(h); 25 μg/ml) was 90% of control, the kinase inhibition (CDK1/cyclinB(h); 50 μg/ml) was 86% of control and the kinase inhibition (CDK1/cyclinB(h); 100 μg/ml) was 74% of control. For the same compound, the kinase inhibition (CHK2(R145W)(h); 1 μg/ml) was 110% of control, the kinase inhibition (CHK2(R145W)(h); 5 μg/ml) was 112% of control and the kinase inhibition (CHK2(R145W)(h); 25 μg/ml) was 99% of control. The kinase inhibition (CHK2(R145W)(h); 50 μg/ml) was 86% of control, the kinase inhibition (CHK2(R145W)(h); 100 μg/ml) was 80% of control and the kinase inhibition (DAPK2(h); 1 μg/ml) was 61% of control. For the same compound, the kinase inhibition (DAPK2(h); 5 μg/ml) was 56% of control, the kinase inhibition (DAPK2(h); 25 μg/ml) was 55% of control and the kinase inhibition (DAPK2(h); 50 μg/ml) was 52% of control. For the same compound, the kinase inhibition (DAPK2(h); 100 μg/ml) was 49% of control, the kinase inhibition (IKKβ(h); 1 μg/ml) was 111% of control and the kinase inhibition (IKKβ(h); 5 μg/ml) was 107% of control. The kinase inhibition (IKKβ(h); 25 μg/ml) was 94% of control, the kinase inhibition (IKKβ(h); 50 μg/ml) was 77% of control and the kinase inhibition (IKKβ(h); 100 μg/ml) was 76% of control. For the same compound, the kinase inhibition (CDK6/cydinD3(h); 1 μg/ml) was 120% of control, the kinase inhibition (CDK6/cydinD3(h); 5 μg/ml) was 109% of control and the kinase inhibition (CDK6/cydinD3(h); 25 μg/ml) was 117% of control. The kinase inhibition (CDK6/cydinD3(h); 50 μg/ml) was 105% of control, the kinase inhibition (CDK6/cydinD3(h); 100 μg/ml) was 92% of control and the kinase inhibition (MRCKα(h); 1 μg/ml) was 100% of control. The kinase inhibition (MRCKα(h); 5 μg/ml) was 94% of control, the kinase inhibition (MRCKα(h); 25 μg/ml) was 112% of control and the kinase inhibition (MRCKα(h); 50 μg/ml) was 102% of control. For the same compound, the kinase inhibition (MRCKα(h); 100 μg/ml) was 97% of control, the kinase inhibition (WNK3(h); 1 μg/ml) was 111% of control and the kinase inhibition (WNK3(h); 5 μg/ml) was 113% of control. For the same compound, the kinase inhibition (WNK3(h); 25 μg/ml) was 109% of control, the kinase inhibition (WNK3(h); 50 μg/ml) was 113% of control and the kinase inhibition (WNK3(h); 100 μg/ml) was 111% of control. For the same compound, the kinase inhibition (Ret(V804M)(h); 1 μg/ml) was 107% of control, the kinase inhibition (Ret(V804M)(h); 5 μg/ml) was 104% of control and the kinase inhibition (Ret(V804M)(h); 25 μg/ml) was 110% of control. The kinase inhibition (Ret(V804M)(h); 50 μg/ml) was 94% of control and the kinase inhibition (Ret(V804M)(h); 100 μg/ml) was 88% of control.
